Legend:
[1] = tested on: 4T1 cells; test: RNA sequencing and analysis (DEGs, GSEA); type: cell-based, Mouse; conditions: 6.25 μM, 12 h, RNA-seq
Protocol: To understand the effect of Rhein-DCA conjugate on the energy flow of glycolysis in cancer cells, we performed RNA sequencing analysis on 4T1 cell lines to analyze the genome. After various treatments for 12 h, all samples were clustered via principal component analysis (PCA) (Figure S12). […] Furthermore, the DEGs involved in glycolysis pathway of kyoto encyclopedia of genes and genomes (KEGG) databases were analyzed (Figure 2G). […] But as a pyruvate analogue, DCA led to the inactivation of PDK1 by binding to the pyruvate-binding pocket of PDK1 protein, together with down-regulation of PDK1 gene, thus leading more prominent restraint of glycolysis.
We next investigated whether the OXPHOS route would be further undermined by Rhein-DCA conjugate when the glycolysis was blocked. […] Thus, it was imperative to simultaneously halt glycolysis and OXPHOS to induce energy obstruction and apoptosis.
4T1 cells were seeded in 10 cm culture dishes and cultured until the confluency reached approximately 80%. The cells were treated with PBS, DCA, rhein, and Rhein-DCA conjugate (at a concentration of 6.25 μM) for 12 h. After that, the cells were collected and suspended in TRIzol Reagent for RNA sequencing. All samples were sent to Shanghai Majorbio Bio-pharm Biotechnology Co., Ltd. (Shanghai, P. R. China) for detection. Total RNA was extracted from 4T1 cells and was measured using the nanodrop-2000. The quality of RNA was evaluated by agarose gel electrophoresis and analyzed with Agilent5300. cDNA libraries were constructed according to the Illumina stranded mRNA prep, Ligation (USA) protocol. The DNA was further enriched by PCR amplification and purified by 2% Low Range Ultra Agarose. Clusters were generated by Bridge PCR on the cBot after being quantified by Qubit 4.0, and sequenced with NovaSeq X Plus platform (PE150). The differential expression analysis of various gene expressions was performed using DESeq2. The GO functional enrichment and KEGG pathway analysis were conducted on Goatools and Python scipy software.

[2] = tested on: 4T1 tumor tissue; test: Lactate detection in tumor tissue (ELISA); type: in vivo, Balb/c mice; conditions: 20 mg/kg oral, 24 days
Excerpt: The TAMs are the prominent components in the TEM and play a critical role in tumoral immunosuppression. Repolarization of protumor M2 phenotype into antitumor M1 phenotype is promising for malignant tumors. On the one hand, as a key metabolite fueling M2 polarization, lactate is very important in modulating the polarization state of macrophages within the tumor microenvironment. To verify that Rhein-DCA conjugate reprogrammed the metabolism of cells on solid tumors, we analyzed the expression of pPDHA1-Ser^293 protein in tumor tissues with immunohistochemical staining (IHC) (Figure 7A). […] The end product lactate of glycolysis decreased 20%, consistent with DCA's ability to reverse the Warburg effect. […] On the other hand, the ICD behavior of cancer cells also can activate TAMs into M1 polarization. Then, the release of HMGB1 was evaluated to assess the ICD effect in vivo with immunofluorescence staining (IF) (Figure 7C).
Tumor tissues were collected and homogenized in ice-cold PBS (1:10, w/v). The tissue was disrupted using sonication in ice bath (power 400 W, the duration of sonication is 3 s, the interval duration of 3 s, total sonication time of 20 min). The homogenate was centrifuged at 5000 G for 10 min at 4 °C to obtain the supernatant. The lactate content was analyzed with a lactate ELISA kit according to the manufacturer's protocol. The results were normalized to the weight of the tumor and reported as µmol lactate/g tissue.

[3] = tested on: 4T1 cells; test: ROS generation assay; type: cell-based, Mouse; conditions: for intracellular ROS (DCFH-DA fluorescence intensity): 6.25 μM, 6 h
Protocol: Rhein is thought to trigger the generation of ROS inside cells by inhibiting mitochondrial complex II, blocking electron transfer from succinate to ubiquinone, which leads to electron leakage at the flavoprotein site, [32]. Therefore, we investigated the ROS production within 4T1 cells in control, DCA, rhein, R + D and Rhein-DCA groups. […] Then, the cellular superoxide radical anion type of ROS production was further detected using dihydroethidium (DHE) fluorescence dyes after incubation with 4T1 cells. […] The flow cytometry was used to further confirm the types of reactive oxygen species, including singlet oxygen (^1O2) and hydroxyl radicals (·OH). The ^1O2 increased greatly about 2.4-fold compared with the control group, and ·OH increased about 1.4-fold (Figure 5D-E). […] Due to the conjugating of rhein, the more mitochondrial accumulation and enhanced PDK inhibition activity of DCA promoted the energy metabolism to redirect towards OXPHOS, increased the mitochondrial electron flux, and amplified the generation of ROS. Excessive ROS would cause oxidative damage of mitochondria and further frustrate OXPHOS, leading to the effectively suppress for cancer cells.
The generation of intracellular ROS within 4T1 cells was measured with DCFH-DA, BBoxiProbe O28 and BBoxiProbe O68 and evaluated by flow cytometry. 4T1 cells were seeded into 6-well plates at a density of 10 × 10^4 cells per well and cultured at 37 °C for 24 h. The cells were treated with rhein (6.25 μM), DCA (6.25 μM), R + D (6.25 μM + 6.25 μM) and Rhein-DCA (6.25 μM) for another 6 h. Cells were detached from the plates with 0.25% Trypsin-EDTA after washed twice with PBS, flowing staining with DCFH-DA (10 μM), BBoxiProbe O28 (Ex = 516 nm, Em = 606 nm) and BBoxiProbe O68 (Ex = 516 nm, Em = 606 nm) for 20 min at 37 °C in the dark.
The level of intracellular superoxide radical anion in 4T1 cells was analyzed with DHE by confocal microscope. 4T1 cells were seeded into confocal dishes with a density of 10 × 10^4 cells per well and treated with various drugs for 24 h and washed twice with PBS, flowing staining with DHE probe (5 μM) for 30 min at 37 °C in the dark. The cellular nuclei were stained with Hoechst 33342 for 10 min at room temperature. The fluorescent images were observed by confocal microscope.

| Compound | PDK1 gene expression [1] | decrease of tumor lactate ([2]; vs vehicle) [%] | intracellular ROS (DCFH-DA fluorescence intensity) ([3]; flow cytometry) | tumor lactate level, in words [2] | superoxide radical anion (DHE fluorescence) ([3]; 24 h, CLSM) | ^1O2 increase compared with control group ([3]; flow cytometry) | ·OH increase compared with control group ([3]; flow cytometry) | tumor lactate level as percentage of the vehicle group [2] [%] |
| --- | --- | --- | --- | --- | --- | --- | --- | --- |
| O=C(O)C(Cl)Cl [DCA, Dichloroacetate] | down-regulated | 20 | – | – | – | – | – | – |
| O=C(O)c1cc(O)c2c(c1)C(=O)c1cccc(O)c1C2=O [Rhein, 4,5-dihydroxyanthraquinone-2-carboxylic acid] | down-regulation | – | slight enhancement | reduced tumor lactate levels | – | – | – | – |
| O=C(OCCOC(=O)C(Cl)Cl)c1cc(O)c2c(c1)C(=O)c1cccc(O)c1C2=O [Rhein-DCA] | significant down-regulation | – | stronger fluorescence signal | – | remarkable red intensity | about 2.4 fold | about 1.4 fold | 44 |

From article PMC12036875, “Mitochondria-targeting natural product rhein conjugated with dichloroacetate as the dual inhibitor of glycolysis and oxidative phosphorylation to off energize cancer cells and induce ROS storm” (Theranostics, 2025)
